{"source": "the kinase profiling compilation of Christmann-Franck et al. (2016)", "settings_in_all_cases": "compound 10.0 µM", "key": {"[1]": {"biological_target": "ACVR1B (human) (UniProt P36896)"}, "[2]": {"biological_target": "AURKB (human) (UniProt Q96GD4)"}, "[3]": {"biological_target": "BMX (human) (UniProt P51813)"}, "[4]": {"biological_target": "CAMK2B (human) (UniProt Q13554)", "sequence (Q13554 whole entry, looked up)": "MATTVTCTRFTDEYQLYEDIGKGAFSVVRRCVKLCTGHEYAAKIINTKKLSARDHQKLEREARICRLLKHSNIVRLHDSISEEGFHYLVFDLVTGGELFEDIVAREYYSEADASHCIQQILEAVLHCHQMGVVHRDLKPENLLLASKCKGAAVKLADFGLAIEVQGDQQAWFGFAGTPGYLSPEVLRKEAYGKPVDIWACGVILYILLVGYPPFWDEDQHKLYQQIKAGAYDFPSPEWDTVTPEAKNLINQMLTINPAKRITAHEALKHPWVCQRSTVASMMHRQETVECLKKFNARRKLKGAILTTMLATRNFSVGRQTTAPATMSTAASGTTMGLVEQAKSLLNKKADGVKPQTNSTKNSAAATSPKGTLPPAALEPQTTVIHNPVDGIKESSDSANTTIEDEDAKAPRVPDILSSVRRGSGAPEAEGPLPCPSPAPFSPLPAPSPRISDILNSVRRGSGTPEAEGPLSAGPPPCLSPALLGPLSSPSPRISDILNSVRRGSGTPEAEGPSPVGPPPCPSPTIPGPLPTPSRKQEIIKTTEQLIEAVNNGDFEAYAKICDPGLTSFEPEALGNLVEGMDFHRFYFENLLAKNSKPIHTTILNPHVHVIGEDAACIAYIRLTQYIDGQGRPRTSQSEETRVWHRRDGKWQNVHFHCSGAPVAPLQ"}, "[5]": {"biological_target": "CAMKK1 (human) (UniProt Q8N5S9)"}, "[6]": {"biological_target": "CDK6 CCND1 (human) (UniProt Q00534+P24385)"}, "[7]": {"biological_target": "CHEK2 (human) (UniProt O96017)"}, "[8]": {"biological_target": "DAPK2 (human) (UniProt Q9UIK4)"}, "[9]": {"biological_target": "EPHA1 (human) (UniProt P21709)"}, "[10]": {"biological_target": "EPHA2 (human) (UniProt P29317)", "sequence (P29317 whole entry, looked up)": "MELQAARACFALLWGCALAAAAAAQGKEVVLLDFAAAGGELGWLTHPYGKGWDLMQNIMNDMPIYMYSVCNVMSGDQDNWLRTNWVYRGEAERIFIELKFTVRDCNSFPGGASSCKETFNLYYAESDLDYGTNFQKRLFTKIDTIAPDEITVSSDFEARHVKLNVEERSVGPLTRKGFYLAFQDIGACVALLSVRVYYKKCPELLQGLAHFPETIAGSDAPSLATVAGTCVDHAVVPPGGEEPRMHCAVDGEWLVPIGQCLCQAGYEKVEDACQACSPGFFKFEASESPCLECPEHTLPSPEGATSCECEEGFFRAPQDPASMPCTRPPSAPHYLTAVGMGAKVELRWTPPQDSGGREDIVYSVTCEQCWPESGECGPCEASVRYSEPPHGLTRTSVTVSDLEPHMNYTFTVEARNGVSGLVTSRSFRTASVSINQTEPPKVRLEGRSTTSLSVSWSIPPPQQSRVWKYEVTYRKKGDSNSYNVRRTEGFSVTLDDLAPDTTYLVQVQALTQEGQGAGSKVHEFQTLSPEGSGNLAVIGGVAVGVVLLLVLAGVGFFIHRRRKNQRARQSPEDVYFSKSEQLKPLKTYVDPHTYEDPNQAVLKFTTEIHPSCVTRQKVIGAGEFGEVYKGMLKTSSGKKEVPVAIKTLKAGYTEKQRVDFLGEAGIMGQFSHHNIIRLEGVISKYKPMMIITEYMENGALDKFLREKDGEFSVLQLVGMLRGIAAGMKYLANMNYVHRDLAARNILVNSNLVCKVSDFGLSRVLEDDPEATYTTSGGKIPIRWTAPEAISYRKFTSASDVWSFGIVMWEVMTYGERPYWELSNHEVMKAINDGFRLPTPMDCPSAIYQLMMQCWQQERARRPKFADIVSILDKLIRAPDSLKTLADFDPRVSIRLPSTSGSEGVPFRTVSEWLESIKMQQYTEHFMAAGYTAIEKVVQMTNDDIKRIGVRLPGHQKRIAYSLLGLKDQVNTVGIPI"}, "[11]": {"biological_target": "EPHA6 (human) (UniProt Q9UF33)"}, "[12]": {"biological_target": "EPHB3 (human) (UniProt P54753)"}, "[13]": {"biological_target": "FGFR2 (human) (UniProt P21802)"}, "[14]": {"biological_target": "FGR (human) (UniProt P09769)"}, "[15]": {"biological_target": "FRK (human) (UniProt P42685)"}, "[16]": {"biological_target": "HCK (human) (UniProt P08631)", "sequence (P08631 whole entry, looked up)": "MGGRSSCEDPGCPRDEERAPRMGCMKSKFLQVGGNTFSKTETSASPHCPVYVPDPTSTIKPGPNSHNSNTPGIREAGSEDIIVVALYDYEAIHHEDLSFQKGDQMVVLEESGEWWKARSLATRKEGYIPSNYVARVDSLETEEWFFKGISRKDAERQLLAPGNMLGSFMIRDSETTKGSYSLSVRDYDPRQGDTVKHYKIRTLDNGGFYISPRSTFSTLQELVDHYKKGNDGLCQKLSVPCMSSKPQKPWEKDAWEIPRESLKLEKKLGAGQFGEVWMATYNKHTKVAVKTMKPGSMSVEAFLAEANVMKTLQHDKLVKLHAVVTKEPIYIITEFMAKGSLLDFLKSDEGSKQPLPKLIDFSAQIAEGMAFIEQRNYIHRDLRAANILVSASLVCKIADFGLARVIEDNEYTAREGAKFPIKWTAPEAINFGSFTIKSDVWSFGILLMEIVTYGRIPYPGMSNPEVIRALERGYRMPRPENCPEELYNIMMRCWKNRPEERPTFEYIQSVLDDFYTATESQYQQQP"}, "[17]": {"biological_target": "HIPK2 (human) (UniProt Q9H2X6)"}, "[18]": {"biological_target": "INSR (human) (UniProt P06213)"}, "[19]": {"biological_target": "LTK (human) (UniProt P29376)"}, "[20]": {"biological_target": "MAP2K2 (human) (UniProt P36507)"}, "[21]": {"biological_target": "MAPK10 (human) (UniProt P53779)"}, "[22]": {"biological_target": "MAPK13 (human) (UniProt O15264)"}, "[23]": {"biological_target": "MAPK3 (human) (UniProt P27361)", "sequence (P27361 whole entry, looked up)": "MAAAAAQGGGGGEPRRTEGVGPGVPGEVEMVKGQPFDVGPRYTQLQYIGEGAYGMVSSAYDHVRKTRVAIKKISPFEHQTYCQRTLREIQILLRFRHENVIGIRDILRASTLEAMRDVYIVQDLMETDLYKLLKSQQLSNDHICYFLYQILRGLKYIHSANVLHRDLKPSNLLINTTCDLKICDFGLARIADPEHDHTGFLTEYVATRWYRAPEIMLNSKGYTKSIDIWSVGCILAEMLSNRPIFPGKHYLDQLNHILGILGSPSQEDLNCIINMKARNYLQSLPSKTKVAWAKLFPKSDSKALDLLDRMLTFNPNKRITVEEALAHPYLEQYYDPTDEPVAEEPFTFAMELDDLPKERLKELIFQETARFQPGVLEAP"}, "[24]": {"biological_target": "MARK1 (human) (UniProt Q9P0L2)"}, "[25]": {"biological_target": "MST1R (human) (UniProt Q04912)", "sequence (Q04912 whole entry, looked up)": "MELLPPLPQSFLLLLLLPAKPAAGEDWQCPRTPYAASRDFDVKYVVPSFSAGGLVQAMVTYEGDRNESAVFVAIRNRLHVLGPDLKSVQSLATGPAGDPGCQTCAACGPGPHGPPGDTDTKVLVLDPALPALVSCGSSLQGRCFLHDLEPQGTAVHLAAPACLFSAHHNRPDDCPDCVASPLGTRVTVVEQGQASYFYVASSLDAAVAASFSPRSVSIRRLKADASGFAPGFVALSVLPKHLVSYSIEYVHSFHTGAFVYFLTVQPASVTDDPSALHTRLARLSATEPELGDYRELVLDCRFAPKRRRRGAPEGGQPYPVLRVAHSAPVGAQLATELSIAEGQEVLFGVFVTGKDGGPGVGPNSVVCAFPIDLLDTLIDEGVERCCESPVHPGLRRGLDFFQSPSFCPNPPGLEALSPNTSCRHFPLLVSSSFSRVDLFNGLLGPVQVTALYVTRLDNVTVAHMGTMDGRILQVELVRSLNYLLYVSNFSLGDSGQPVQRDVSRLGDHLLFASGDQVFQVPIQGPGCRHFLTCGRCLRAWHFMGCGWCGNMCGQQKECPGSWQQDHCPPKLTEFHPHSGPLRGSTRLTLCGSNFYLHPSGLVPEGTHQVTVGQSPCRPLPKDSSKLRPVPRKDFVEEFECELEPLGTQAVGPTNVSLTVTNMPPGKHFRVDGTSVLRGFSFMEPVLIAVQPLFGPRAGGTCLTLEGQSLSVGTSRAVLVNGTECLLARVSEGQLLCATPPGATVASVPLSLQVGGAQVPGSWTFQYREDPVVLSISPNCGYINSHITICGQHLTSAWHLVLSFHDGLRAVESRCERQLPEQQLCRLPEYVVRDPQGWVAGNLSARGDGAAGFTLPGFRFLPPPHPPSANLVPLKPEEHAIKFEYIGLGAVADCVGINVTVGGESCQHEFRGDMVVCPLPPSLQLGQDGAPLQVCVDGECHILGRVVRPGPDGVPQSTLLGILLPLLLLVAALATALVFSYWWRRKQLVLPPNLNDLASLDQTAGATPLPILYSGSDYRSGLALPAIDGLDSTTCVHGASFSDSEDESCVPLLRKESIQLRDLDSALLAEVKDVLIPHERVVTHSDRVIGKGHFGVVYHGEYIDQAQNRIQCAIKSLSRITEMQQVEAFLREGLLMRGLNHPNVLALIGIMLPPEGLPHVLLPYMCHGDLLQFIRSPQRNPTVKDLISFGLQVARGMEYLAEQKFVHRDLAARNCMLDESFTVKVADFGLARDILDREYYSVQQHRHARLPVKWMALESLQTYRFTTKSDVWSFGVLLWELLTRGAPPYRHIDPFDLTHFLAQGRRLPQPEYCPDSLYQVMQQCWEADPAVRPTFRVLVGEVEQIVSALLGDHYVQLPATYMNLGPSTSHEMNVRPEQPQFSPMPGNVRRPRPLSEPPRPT"}, "[26]": {"biological_target": "MUSK (human) (UniProt O15146)"}, "[27]": {"biological_target": "MYLK2 (human) (UniProt Q9H1R3)"}, "[28]": {"biological_target": "NTRK1 (human) (UniProt P04629)"}, "[29]": {"biological_target": "NTRK2 (human) (UniProt Q16620)"}, "[30]": {"biological_target": "NUAK1 (human) (UniProt O60285)"}, "[31]": {"biological_target": "OXSR1 (human) (UniProt O95747)"}, "[32]": {"biological_target": "PASK (human) (UniProt Q96RG2)"}, "[33]": {"biological_target": "PIM1 (human) (UniProt P11309)"}, "[34]": {"biological_target": "PIM2 (human) (UniProt Q9P1W9)"}, "[35]": {"biological_target": "PRKCD (human) (UniProt Q05655)", "sequence (Q05655 whole entry, looked up)": "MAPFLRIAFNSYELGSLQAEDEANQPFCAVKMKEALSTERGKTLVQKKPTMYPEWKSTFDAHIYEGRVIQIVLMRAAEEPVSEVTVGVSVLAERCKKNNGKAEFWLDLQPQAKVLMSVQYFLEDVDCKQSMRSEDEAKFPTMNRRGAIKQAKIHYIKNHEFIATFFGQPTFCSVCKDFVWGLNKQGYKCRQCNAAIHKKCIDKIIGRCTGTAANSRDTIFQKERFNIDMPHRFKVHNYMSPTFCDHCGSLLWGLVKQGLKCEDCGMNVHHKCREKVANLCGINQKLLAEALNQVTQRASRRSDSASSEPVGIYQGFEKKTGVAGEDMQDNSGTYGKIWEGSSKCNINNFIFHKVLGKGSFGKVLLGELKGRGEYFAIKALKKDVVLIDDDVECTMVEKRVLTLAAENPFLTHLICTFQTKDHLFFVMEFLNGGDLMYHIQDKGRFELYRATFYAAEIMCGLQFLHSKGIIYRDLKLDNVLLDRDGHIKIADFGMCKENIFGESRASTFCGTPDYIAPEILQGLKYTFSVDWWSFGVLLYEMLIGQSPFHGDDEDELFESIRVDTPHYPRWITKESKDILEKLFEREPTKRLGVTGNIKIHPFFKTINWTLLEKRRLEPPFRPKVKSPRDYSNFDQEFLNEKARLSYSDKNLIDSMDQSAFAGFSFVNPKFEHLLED"}, "[36]": {"biological_target": "PRKCZ (human) (UniProt Q05513)"}, "[37]": {"biological_target": "PRKD3 (human) (UniProt O94806)"}, "[38]": {"biological_target": "PTK2 (human) (UniProt Q05397)"}, "[39]": {"biological_target": "ROS1 (human) (UniProt P08922)"}, "[40]": {"biological_target": "RPS6KA5 KD1 KD2 (human) (UniProt O75582)"}, "[41]": {"biological_target": "SGK2 (human) (UniProt Q9HBY8)", "sequence (Q9HBY8 whole entry, looked up)": "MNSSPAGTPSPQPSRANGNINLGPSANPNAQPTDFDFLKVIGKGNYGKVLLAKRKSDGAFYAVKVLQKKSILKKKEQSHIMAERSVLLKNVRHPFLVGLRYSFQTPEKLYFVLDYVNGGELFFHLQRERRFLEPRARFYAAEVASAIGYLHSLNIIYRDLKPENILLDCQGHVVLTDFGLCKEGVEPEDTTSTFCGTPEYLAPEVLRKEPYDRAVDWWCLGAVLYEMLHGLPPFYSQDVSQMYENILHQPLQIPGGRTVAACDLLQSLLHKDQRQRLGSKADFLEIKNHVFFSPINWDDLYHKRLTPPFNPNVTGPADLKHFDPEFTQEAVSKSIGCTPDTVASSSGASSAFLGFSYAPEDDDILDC"}, "[42]": {"biological_target": "STK3 (human) (UniProt Q13188)"}, "[43]": {"biological_target": "TGFBR1 (human) (UniProt P36897)"}, "[44]": {"biological_target": "TNK2 (human) (UniProt Q07912)"}}}
{"smiles": "CC[C@H](C)n1cc(C)c2c(C(=O)NCc3c(C)cc(C)[nH]c3=O)cc(-c3ccc(N4CCNCC4)nc3)cc21", "values": [{"measurement": "residual activity", "setting": "[1]", "result": 98.5, "unit": "%"}, {"measurement": "residual activity", "setting": "[2]", "result": 104, "unit": "%"}, {"measurement": "residual activity", "setting": "[3]", "result": 102, "unit": "%"}, {"measurement": "residual activity", "setting": "[4]", "result": 95.5, "unit": "%"}, {"measurement": "residual activity", "setting": "[5]", "result": 96, "unit": "%"}, {"measurement": "residual activity", "setting": "[6]", "result": 106, "unit": "%"}, {"measurement": "residual activity", "setting": "[7]", "result": 71, "unit": "%"}, {"measurement": "residual activity", "setting": "[8]", "result": 106, "unit": "%"}, {"measurement": "residual activity", "setting": "[9]", "result": 104, "unit": "%"}, {"measurement": "residual activity", "setting": "[10]", "result": 106, "unit": "%"}, {"measurement": "residual activity", "setting": "[11]", "result": 90, "unit": "%"}, {"measurement": "residual activity", "setting": "[12]", "result": 92.5, "unit": "%"}, {"measurement": "residual activity", "setting": "[13]", "result": 98.5, "unit": "%"}, {"measurement": "residual activity", "setting": "[14]", "result": 91, "unit": "%"}, {"measurement": "residual activity", "setting": "[15]", "result": 97, "unit": "%"}, {"measurement": "residual activity", "setting": "[16]", "result": 101, "unit": "%"}, {"measurement": "residual activity", "setting": "[17]", "result": 90, "unit": "%"}, {"measurement": "residual activity", "setting": "[18]", "result": 95.5, "unit": "%"}, {"measurement": "residual activity", "setting": "[19]", "result": 102, "unit": "%"}, {"measurement": "residual activity", "setting": "[20]", "result": 102, "unit": "%"}, {"measurement": "residual activity", "setting": "[21]", "result": 105, "unit": "%"}, {"measurement": "residual activity", "setting": "[22]", "result": 95, "unit": "%"}, {"measurement": "residual activity", "setting": "[23]", "result": 99, "unit": "%"}, {"measurement": "residual activity", "setting": "[24]", "result": 95.5, "unit": "%"}, {"measurement": "residual activity", "setting": "[25]", "result": 97, "unit": "%"}, {"measurement": "residual activity", "setting": "[26]", "result": 104, "unit": "%"}, {"measurement": "residual activity", "setting": "[27]", "result": 96.5, "unit": "%"}, {"measurement": "residual activity", "setting": "[28]", "result": 106, "unit": "%"}, {"measurement": "residual activity", "setting": "[29]", "result": 99, "unit": "%"}, {"measurement": "residual activity", "setting": "[30]", "result": 102, "unit": "%"}, {"measurement": "residual activity", "setting": "[31]", "result": 92.5, "unit": "%"}, {"measurement": "residual activity", "setting": "[32]", "result": 90.5, "unit": "%"}, {"measurement": "residual activity", "setting": "[33]", "result": 102, "unit": "%"}, {"measurement": "residual activity", "setting": "[34]", "result": 99, "unit": "%"}, {"measurement": "residual activity", "setting": "[35]", "result": 102, "unit": "%"}, {"measurement": "residual activity", "setting": "[36]", "result": 99.5, "unit": "%"}, {"measurement": "residual activity", "setting": "[37]", "result": 102, "unit": "%"}, {"measurement": "residual activity", "setting": "[38]", "result": 91.5, "unit": "%"}, {"measurement": "residual activity", "setting": "[39]", "result": 110, "unit": "%"}, {"measurement": "residual activity", "setting": "[40]", "result": 108, "unit": "%"}, {"measurement": "residual activity", "setting": "[41]", "result": 105, "unit": "%"}, {"measurement": "residual activity", "setting": "[42]", "result": 90, "unit": "%"}, {"measurement": "residual activity", "setting": "[43]", "result": 100, "unit": "%"}, {"measurement": "residual activity", "setting": "[44]", "result": 93.5, "unit": "%"}]}
